Experimental data published in patent US4228155A, “Synthetic peptides having pituitary growth hormone releasing activity” (Beckman Instruments, Inc., priority 1979, dated 1980).
Several values for one entry are separate records, joined by “and”; a condition that tells them apart may be missing. Equal entries are not always repeated. Where a SMILES comes first, the peptide text is derived from it. [ ]: non-standard residue; d: D form.

Tested on: pituitary
Test: In vitro growth hormone release study (incubated rat pituitaries, GH radioimmunoassay)
Assay type: cell-based
Conditions: pituitaries of 20 day old female rats, ΔGH (I3-P2),(I4-P2), ± SEM
Method: Female rats of the CD-1 strain were housed in a constant temperature room at 24° C. with 14 hours light and 10 hours darkness. The rats were fed Purina brand rat chow ab libitum.
All studies were started between 0800 and 1000 hours.
Pituitaries were removed from 20 day old female rats. Two pituitaries were incubated at 36° C. in 1 ml of lactated Ringer's solution in 10 ml polytetrafluoroethylene beakers in a Dubnoff Shaker (90 cycles/min.). The pituitaries were incubated a total of 4 hours (P1, P2, I3, and I4). After two successive one hour preincubation periods (P1, P2), the peptide was added to the incubation medium hourly for 2 hours (I3, I4).
This in vitro study was performed in triplicate and a standard radioimmunoassay of growth hormone present in the incubation medium was performed in duplicate. The hormonal activity was calculated as the difference (Δ) of growth hormone (GH) levels between I3, I4 and P2, i.e., (I3 -P2) and (I4 -P2). P values were calculated by Students' t test using six growth hormone values for each value recorded.
The growth hormone radioimmunoassay reagents were distributed by the National Institute of Arthritis and […] (NIAMDD) program. The growth hormone values were calculated in terms of nanograms (ng) of a rat standard with a growth hormone potency of 0.61 units/mg.

## CSCC[C@H](NC(=O)[C@H](CCCCN)NC(=O)[C@@H](Cc1ccccc1)NC(=O)[C@@H](Cc1ccccc1)NC(=O)[C@@H](N)Cc1c[nH]c2ccccc12)C(N)=O [H2 N--Trp--D-Phe--D-Phe--Lys--Met--CONH2, H2 N-Trp-D-Phe-D-Phe-Lys-Met-CONH2] (H-W[dF][dF]KM-NH2)
0.3μg peptide
  IN VITRO GROWTH HORMONE RELEASE: 24 ± 24 ngΔGH/ml incubation medium
10μg peptide
  IN VITRO GROWTH HORMONE RELEASE: 853 ± 138 ngΔGH/ml incubation medium and 440 ± 180 ngΔGH/ml incubation medium
